Experimental data: patent US8957238B2, “Process for preparing malathion for pharmaceutical use” (priority 2005, dated 2015)

Assay: Storage stability of malathion prepared by the process of the invention, HPLC after storage (Example 7, Table IV)
Assay type: physicochemical
Protocol: The malathion prepared by the process of the invention was tested for storage stability. Malathion prepared by the process of the invention was stored under a variety of different temperature and humidity conditions for up to three (3) months. […] The purity of the sample was determined after storage using HPLC.
Table IV presents the analytical data showing storage of two, different batches of malathion after storage under a variety of different conditions.
MeOOSPO, MeOSSPO, malaxon, MeOOSPS, diethyl fumarate, dimethyl malathion, methyl malathion, O,O-methyl, ethyl S-(1,2-dicarboethoxy)ethyl phosphorodithioate, tetraethyl dithiosuccinate, isomalathion, malathion carboxylic acids, mercaptosuccinate and the tetraethyl thiodisuccinate were assayed for by HPLC. The mobile phase was a mixture of water, acetonitrile and methanol (480:370:150) and one drop of 85% phosphoric acid for each […] of mobile phase. Method validation was performed and system reproducibility, linearity, repeatability, intermediate precision, recovery of related compounds and sensitivity were assessed according to standard methology (U.S. Pharmacopeia, 2004, U.S. Pharmacopeial Convention, Inc., 12601 Twinbrook Parkway, Rockville, Md. 20852). If necessary, the mobile phase composition and/or flow rate were adjusted to meet the chromatographic parameters.

[1] = Storage at 25° C., 60% relative humidity for 3 months
[2] = Storage at 30° C. and 60% relative humidity for 3 months
[3] = Storage at 40° C. and 75% relative humidity for 3 months

SMILES	Diethyl fumarate in malathion (Baseline, time 0)	Dimethyl malathion in malathion (Baseline, time 0)	Malaoxon in malathion (Baseline, time 0)	Malathion Purity (Baseline, time 0)	MeOOSPO in malathion (Baseline, time 0)	MeOOSPS in malathion (Baseline, time 0)	MeOSSPO in malathion (Baseline, time 0)	Methyl malathion in malathion (Baseline, time 0)	Diethyl fumarate in malathion (Storage at 5° C. for 3 months)	Dimethyl malathion in malathion (Storage at 5° C. for 3 months)	Malaoxon in malathion (Storage at 5° C. for 3 months)	Malathion Purity (Storage at 5° C. for 3 months)	MeOOSPO in malathion (Storage at 5° C. for 3 months)	MeOOSPS in malathion (Storage at 5° C. for 3 months)	MeOSSPO in malathion (Storage at 5° C. for 3 months)	Methyl malathion in malathion (Storage at 5° C. for 3 months)	Diethyl fumarate in malathion [1]	Dimethyl malathion in malathion [1]	Malaoxon in malathion [1]	Malathion Purity [1]	also measured
CCOC(=O)CC(SP(=S)(OC)OC)C(=O)OCC (centres unmarked) [Batch I, [(dimethoxyphosphinothioyl)thio]butanedioic acid diethyl ester]	<0.01 % (w/w)	<0.02 % (w/w)	<0.05 % (w/w)	99.5 % (w/w)	<0.04 % (w/w)	0.1 % (w/w)	<0.02 % (w/w)	0.06 % (w/w)	<0.01 % (w/w)	<0.02 % (w/w)	<0.02 % (w/w)	99.7 % (w/w)	<0.04 % (w/w)	0.1 % (w/w)	<0.02 % (w/w)	0.06 % (w/w)	<0.01 % (w/w)	<0.02 % (w/w)	<0.02 % (w/w)	99.0 % (w/w)	MeOOSPO in malathion [1]: <0.04 % (w/w); MeOOSPS in malathion [1]: 0.1 % (w/w); MeOSSPO in malathion [1]: <0.02 % (w/w); Methyl malathion in malathion [1]: 0.06 % (w/w); Diethyl fumarate in malathion [2]: <0.01 % (w/w); Dimethyl malathion in malathion [2]: <0.02 % (w/w); Malaoxon in malathion [2]: <0.02 % (w/w); Malathion Purity [2]: 99.0 % (w/w); MeOOSPO in malathion [2]: <0.04 % (w/w); MeOOSPS in malathion [2]: 0.1 % (w/w); MeOSSPO in malathion [2]: <0.02 % (w/w); Methyl malathion in malathion [2]: 0.06 % (w/w); Diethyl fumarate in malathion [3]: <0.02 % (w/w); Dimethyl malathion in malathion [3]: <0.02 % (w/w); Malaoxon in malathion [3]: <0.05 % (w/w); Malathion Purity [3]: 97.5 % (w/w); MeOOSPO in malathion [3]: 0.05 % (w/w); MeOOSPS in malathion [3]: 0.2 % (w/w); MeOSSPO in malathion [3]: <0.02 % (w/w); Methyl malathion in malathion [3]: 0.06 % (w/w)
CCOC(=O)CC(SP(=S)(OC)OC)C(=O)OCC (centres unmarked) [Batch II, [(dimethoxyphosphinothioyl)thio]butanedioic acid diethyl ester]	<0.06 % (w/w)	<0.02 % (w/w)	<0.05 % (w/w)	99.5 % (w/w)	<0.04 % (w/w)	0.09 % (w/w)	<0.02 % (w/w)	0.08 % (w/w)	<0.01 % (w/w)	<0.02 % (w/w)	<0.05 % (w/w)	99.7 % (w/w)	<0.04 % (w/w)	0.1 % (w/w)	<0.09 % (w/w)	0.07 % (w/w)	<0.01 % (w/w)	<0.02 % (w/w)	<0.05 % (w/w)	99.4 % (w/w)	MeOOSPO in malathion [1]: <0.04 % (w/w); MeOOSPS in malathion [1]: 0.09 % (w/w); MeOSSPO in malathion [1]: <0.02 % (w/w); Methyl malathion in malathion [1]: 0.07 % (w/w); Diethyl fumarate in malathion [2]: <0.01 % (w/w); Dimethyl malathion in malathion [2]: <0.02 % (w/w); Malaoxon in malathion [2]: <0.05 % (w/w); Malathion Purity [2]: 99.1 % (w/w); MeOOSPO in malathion [2]: <0.04 % (w/w); MeOOSPS in malathion [2]: 0.1 % (w/w); MeOSSPO in malathion [2]: <0.02 % (w/w); Methyl malathion in malathion [2]: 0.08 % (w/w); Diethyl fumarate in malathion [3]: <0.02 % (w/w); Dimethyl malathion in malathion [3]: <0.02 % (w/w); Malaoxon in malathion [3]: <0.05 % (w/w); Malathion Purity [3]: 97.4 % (w/w); MeOOSPO in malathion [3]: 0.05 % (w/w); MeOOSPS in malathion [3]: 0.2 % (w/w); MeOSSPO in malathion [3]: <0.02 % (w/w); Methyl malathion in malathion [3]: 0.08 % (w/w)
